Experimental data as given in paper PMC4375495 (The Journal of Biological Chemistry, 2015).

Experiments:
[1] = target: PI3Kδ (murine p110δ-p85α) (Mus musculus, UniProt O35904); experiment: biochemical
Text: All IC50 values represent geometric mean values of a minimum of four determinations.

PI3Kδ-p85α = PI3Kδ-p85α (Mus musculus, UniProt O35904); experiment: Reversibility (dilution) assay; format: biochemical, murine; settings: preincubation 1 h with 400 nM idelalisib or 100 nM wortmannin; 10 μM PIP2, 300 μM ATP
PI3Kδ-p85α, sequence (O35904 whole entry): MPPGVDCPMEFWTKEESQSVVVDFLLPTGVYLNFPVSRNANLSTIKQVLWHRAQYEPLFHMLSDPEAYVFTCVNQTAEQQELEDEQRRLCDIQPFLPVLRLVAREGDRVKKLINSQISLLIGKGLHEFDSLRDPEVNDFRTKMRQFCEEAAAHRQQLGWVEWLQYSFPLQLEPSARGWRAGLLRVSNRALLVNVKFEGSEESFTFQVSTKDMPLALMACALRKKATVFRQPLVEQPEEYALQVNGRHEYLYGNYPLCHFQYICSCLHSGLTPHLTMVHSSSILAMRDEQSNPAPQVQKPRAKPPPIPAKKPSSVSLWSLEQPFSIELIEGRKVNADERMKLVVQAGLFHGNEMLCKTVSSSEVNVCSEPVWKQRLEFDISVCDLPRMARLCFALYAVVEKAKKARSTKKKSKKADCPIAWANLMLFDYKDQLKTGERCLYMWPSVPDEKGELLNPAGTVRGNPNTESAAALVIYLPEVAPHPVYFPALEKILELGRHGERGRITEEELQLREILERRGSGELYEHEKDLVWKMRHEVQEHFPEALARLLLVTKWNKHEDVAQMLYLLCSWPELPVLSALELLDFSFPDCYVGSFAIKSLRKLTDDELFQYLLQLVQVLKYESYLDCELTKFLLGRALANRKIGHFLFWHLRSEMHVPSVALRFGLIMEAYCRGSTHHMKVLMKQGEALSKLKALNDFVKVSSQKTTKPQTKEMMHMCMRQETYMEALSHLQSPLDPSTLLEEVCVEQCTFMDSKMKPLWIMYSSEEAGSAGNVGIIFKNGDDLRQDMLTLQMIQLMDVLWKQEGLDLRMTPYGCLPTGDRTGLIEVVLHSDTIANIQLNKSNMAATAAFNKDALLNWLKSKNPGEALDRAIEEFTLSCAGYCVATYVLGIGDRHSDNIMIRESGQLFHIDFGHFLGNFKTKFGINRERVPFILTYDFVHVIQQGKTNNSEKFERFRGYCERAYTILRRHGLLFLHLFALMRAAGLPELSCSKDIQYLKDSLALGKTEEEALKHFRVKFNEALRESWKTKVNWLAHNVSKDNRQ
PI3Kδ-p85α, sequence (P27986 whole entry partner): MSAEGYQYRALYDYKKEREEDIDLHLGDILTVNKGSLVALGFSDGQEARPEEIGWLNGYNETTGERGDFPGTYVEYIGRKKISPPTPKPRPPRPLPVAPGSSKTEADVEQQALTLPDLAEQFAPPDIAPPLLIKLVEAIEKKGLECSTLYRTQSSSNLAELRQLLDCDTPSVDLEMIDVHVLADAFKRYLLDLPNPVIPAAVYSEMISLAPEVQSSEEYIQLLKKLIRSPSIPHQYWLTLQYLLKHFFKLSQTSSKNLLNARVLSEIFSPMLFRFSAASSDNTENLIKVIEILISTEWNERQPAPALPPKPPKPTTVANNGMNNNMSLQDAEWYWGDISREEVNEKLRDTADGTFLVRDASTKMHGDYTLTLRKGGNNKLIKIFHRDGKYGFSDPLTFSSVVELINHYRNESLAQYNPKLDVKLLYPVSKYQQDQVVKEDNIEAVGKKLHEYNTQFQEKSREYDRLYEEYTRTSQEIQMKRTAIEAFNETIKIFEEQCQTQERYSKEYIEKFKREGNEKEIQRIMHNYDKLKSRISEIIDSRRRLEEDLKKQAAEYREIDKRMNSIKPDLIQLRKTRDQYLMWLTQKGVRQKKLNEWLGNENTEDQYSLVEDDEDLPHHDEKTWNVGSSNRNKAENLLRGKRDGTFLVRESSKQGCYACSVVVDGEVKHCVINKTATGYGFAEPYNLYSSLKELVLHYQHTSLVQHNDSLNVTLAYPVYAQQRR
Protocol: One microliter of solution was transferred to 99 μl of reaction buffer solution containing 10 μM PIP2 and 300 μM ATP to initiate the enzyme reaction. At 5-min intervals, samples from each reaction were quenched with HTRF stop solution, and fluorescence was measured using the detection kit as described above. The reactions were measured over a time frame of 40 min. […] The data were analyzed with linear least square fits to obtain reaction rates.

[2] = tested on: broad panel of 351 kinases and 44 mutant kinases; experiment: KINOMEscan kinase panel; format: binding; settings: 10 μM idelalisib
Protocol: The enzymatic activity of the class I PI3K isoforms was measured using a time-resolved FRET assay that monitors formation of the product PIP3, because it competes with fluorescently labeled PIP3 for binding to the GRP-1 pleckstrin homology domain protein. An increase in PIP3 product results in a decrease in time-resolved FRET signal as the labeled fluorophore is displaced from the GRP-1. […] After an assay reaction time of 30 min at 25 °C, reactions were terminated with a final concentration of 10 mM EDTA, 10 nM labeled PIP3, and 35 nM europium-labeled GRP-1 detector protein before reading time-resolved FRET on an Envision plate reader (excitation, 340 nm; emission, 615/665 nm; delay, 100 μs; and read window, 500 μs). […] All IC50 values represent geometric mean values of a minimum of four determinations. These assays generally produced results within 3-fold of the reported mean.

ΔABD-p110δ = target: T1, ΔABD-p110δ (Mus musculus, UniProt O35904); experiment: Surface plasmon resonance binding assay (Biacore); parameters: species or system murine; settings: for dissociation from the protein during the dissociation phase: idelalisib 0.12-30 nM, wortmannin 2 μM, 1-hour dissociation phase
T1 construct: digested with the rTEV protease to remove the iSH2 and ABD domains; made in house
T1 sequence (O35904 106-1043 limits assumed): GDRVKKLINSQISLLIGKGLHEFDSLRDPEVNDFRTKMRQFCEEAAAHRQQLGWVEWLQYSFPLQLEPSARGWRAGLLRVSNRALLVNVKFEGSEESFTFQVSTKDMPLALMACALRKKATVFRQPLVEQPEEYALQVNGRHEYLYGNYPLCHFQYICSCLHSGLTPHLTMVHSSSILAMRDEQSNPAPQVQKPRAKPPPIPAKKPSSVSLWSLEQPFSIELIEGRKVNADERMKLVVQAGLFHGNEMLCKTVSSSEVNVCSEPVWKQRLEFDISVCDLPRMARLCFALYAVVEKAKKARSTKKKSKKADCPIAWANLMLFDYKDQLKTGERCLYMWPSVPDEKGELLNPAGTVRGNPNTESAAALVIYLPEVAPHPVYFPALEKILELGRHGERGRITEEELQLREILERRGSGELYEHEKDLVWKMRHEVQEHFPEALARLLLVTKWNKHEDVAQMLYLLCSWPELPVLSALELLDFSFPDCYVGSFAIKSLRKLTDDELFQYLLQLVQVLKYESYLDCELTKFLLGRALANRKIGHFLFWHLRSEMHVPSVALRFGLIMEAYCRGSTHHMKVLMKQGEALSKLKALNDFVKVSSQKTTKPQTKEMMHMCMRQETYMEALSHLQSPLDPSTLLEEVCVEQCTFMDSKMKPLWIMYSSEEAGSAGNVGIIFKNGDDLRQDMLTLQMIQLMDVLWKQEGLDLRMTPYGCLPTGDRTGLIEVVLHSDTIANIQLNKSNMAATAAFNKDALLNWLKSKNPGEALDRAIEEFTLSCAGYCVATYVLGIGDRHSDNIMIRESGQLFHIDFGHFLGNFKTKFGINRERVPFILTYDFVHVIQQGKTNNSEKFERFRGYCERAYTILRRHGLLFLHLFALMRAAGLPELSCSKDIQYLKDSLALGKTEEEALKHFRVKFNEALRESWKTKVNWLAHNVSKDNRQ
Protocol: ΔABD-p110δ was minimally biotinylated using a 1:1 molar ratio of protein to EZ-link sulfo-NHS-LC-LC-biotin (ThermoScientific; catalog no. 21338). […] Following incubation for 1 h at 4 °C, the mixture was desalted using a Zeba spin desalting column (ThermoScientific; catalog no. 89883) pre-equilibrated in Biacore running buffer (25 mM HEPES, pH 7.5, 150 mM NaCl, 5 mM MgCl2, 1 mM TCEP, 5% glycerol, 0.05% P20) to remove any unreacted biotin. […] Characterization of inhibitor binding and dissociation was performed using a Biacore T100 instrument and research grade series S CM5 sensor chips (GE Healthcare; catalog no. BR-1005-30). Before use, CM5 sensor chips were preconditioned using two 6-s pulses each of 100 mM HCl, 50 mM NaOH, 0.5% (w/v) SDS, and deionized H2O at a flow rate of 100 μl/min. Approximately 15,000 response units (RU) of neutravidin was immobilized on all four surfaces via standard amine-coupling chemistry (GE Healthcare; catalog no. BR-1000-50) in HBS-P buffer (10 mM HEPES, pH 7.4, 150 mM NaCl, 0.005% P20). Biotinylated protein was injected over separate flow cells to achieve capture levels ranging between 6,000 and 14,000 response units. Any remaining free sites on neutravidin were blocked with two 5-min pulses of 50 μM EZ-Link-Amine-PEG2-Biotin (ThermoScientific; catalog no. 21346) at a flow rate of 30 μl/min. […] Wortmannin was injected on a separate sensor chip at a concentration of 2 μM for an 8-min association phase and a 1-hour dissociation phase. At the end of each injection cycle, the injection needle and tubing were washed with 50% DMSO using the “extra wash” command. A five-point DMSO concentration series (ranging from 0.8% to 1.2% DMSO) was included to generate a calibration curve to correct for excluded volume effects. Sensorgrams were double-referenced and corrected for solvent effects using Scrubber 2.0c software (Biologic Software, Campbell, Australia) but fitted using both Scrubber and CLAMP software ([23]).
The data were fitted using a mass transport model ([24], [25]). Three independent surfaces were globally fit for the association and dissociation rates ka and […], while floating the maximum binding response (Rmax) and mass transport (kt) constant for each surface. […] For wortmannin, only an off-rate analysis was performed.

[3] = target: recombinant PI3Kδ (p110δ-p85α) (Mus musculus, UniProt O35904); experiment: Competition of idelalisib with ATP (HTRF kinetic assay); format: biochemical, murine
recombinant PI3Kδ (p110δ-p85α), sequence (O35904 whole entry): as the sequence (O35904 whole entry) above
recombinant PI3Kδ (p110δ-p85α), sequence (P27986 whole entry partner): as the sequence (P27986 whole entry partner) above
Protocol: After a 1-h preincubation period, PIP2 was added to a final concentration of 10 μM, and ATP was added at concentrations from 0 to 1.5 mM to initiate the reaction. After 45 min, the reactions were quenched with a stop solution from the assay kit. A detection solution was then added to each well, and the mixture was further incubated for 2 h. Time-resolved fluorescence was measured with a Tecan Infinite M1000 plate reader, using an excitation wavelength of 330 nm and emission wavelengths of 620 and 665 nm. The ratio of emission at 665 nm to that at 620 nm was used as the measure of reaction rate. […] Values of α ≫ 1 are indicative of competitive inhibition, values of α approximately equal to 1 imply noncompetitive inhibition, and values of α ≪ 1 are characteristic of uncompetitive inhibitors ([22]).

[4] = biotinylated p110δ captured on neutravidin, mass transport model, global fit

PI3Kδ (murine p110δ-p85α), sequence (O35904 whole entry): as the sequence (O35904 whole entry) above
PI3Kδ (murine p110δ-p85α), sequence (P27986 whole entry partner): as the sequence (P27986 whole entry partner) above

| Structure (SMILES) | IC50 [1] | recovery of enzyme activity following 1:100 dilution of the enzyme-inhibitor complex (PI3Kδ-p85α) | most potent percent inhibition seen for any non-PI3K kinase [2] | off rate kd (ΔABD-p110δ; [4]) | on rate ka (ΔABD-p110δ; [4]) | dissociation from the protein during the dissociation phase (ΔABD-p110δ) | Ki ([3]; read-out: Ki (inhibition constant)) | mode of inhibition (parameter α of the global fit) ([3]; α ≫ 1) |
| --- | --- | --- | --- | --- | --- | --- | --- | --- |
| CC[C@H](Nc1ncnc2[nH]cnc12)c1nc2cccc(F)c2c(=O)n1-c1ccccc1 [Idelalisib, 5-fluoro-3-phenyl-2-[(1S)-1-(9H-purin-6-ylamino)propyl]quinazolin-4(3H)-one] | 19 nM | enzyme activity was quickly recovered | 47% | 0.00634 s⁻¹ | 5.18e+06 M⁻¹ s⁻¹ | complete dissociation | 1.5 ± 0.1 nM | ATP-competitive inhibition |
| COC[C@H]1OC(=O)c2coc3c2[C@@]1(C)C1=C(C3=O)[C@@H]2CCC(=O)[C@@]2(C)C[C@H]1OC(C)=O [wortmannin] |  | did not show detectable recovery of activity upon dilution |  |  |  | no dissociation after 1 h |  |  |
